Assay results taken from US9062050B2, “Inhibitor of JAK1 and JAK2” (Eli Lilly and Company, priority 2012, dated 2015).

Biological target: T1, JAK1 (Homo sapiens, UniProt P23458)
T1 construct: purchased Life Technologies #PV4844
Assay: JAK LanthaScreen Kinase Assay (TR-FRET), JAK1
Format: biochemical
Conditions: enzyme assay, 20.0 micromolar ATP, n=3; read-out: IC50 against JAK1
Description: The JAK LanthaScreen™ Kinase Assay (Life Technologies, #PV4844) is used to determine compound IC50 values against the JAK1, JAK2, and JAK3 kinases. This kinase assay is a Time Resolved Fluorescence Resonance Energy Transfer (TR-FRET) assay format that uses long-lifetime terbium (Tb) labeled antibody as the donor species and Green Fluorescent Protein-Signal Transducers and Activators of Transcription (GFP-STAT1) as the acceptor species.
The TR-FRET ratio is used to monitor JAK1, JAK2, or JAK3 activity where an increase in phosphorylation of the GFP-STAT1 results in an increase in the TR-FRET ratio. Perform the kinase reaction using a 12.5 microliter reaction volume in shallow black 384-well Proxiplate (PerkinElmer, #6008260). […] Incubate at room temperature for 90 minutes, and read in an EnVision plate reader (PerkinElmer, #2104-0010) with 340 nm wavelength excitation filter and emission filters of 520 nm and 495 nm wavelengths. The ratio is derived from the emission wavelength for the GFP-STAT1 which is measured at 520 nanometer versus the emission at 495 nanometer for the Tb-anti-pSTAT1[pTyr701]. Derive the IC50 value for the compound using percent inhibition data, which is calculated from the reaction data relative to on-plate controls (active enzyme versus 2.0 micromolar control-inhibited enzyme). […]

T1 sequence (P23458 whole entry): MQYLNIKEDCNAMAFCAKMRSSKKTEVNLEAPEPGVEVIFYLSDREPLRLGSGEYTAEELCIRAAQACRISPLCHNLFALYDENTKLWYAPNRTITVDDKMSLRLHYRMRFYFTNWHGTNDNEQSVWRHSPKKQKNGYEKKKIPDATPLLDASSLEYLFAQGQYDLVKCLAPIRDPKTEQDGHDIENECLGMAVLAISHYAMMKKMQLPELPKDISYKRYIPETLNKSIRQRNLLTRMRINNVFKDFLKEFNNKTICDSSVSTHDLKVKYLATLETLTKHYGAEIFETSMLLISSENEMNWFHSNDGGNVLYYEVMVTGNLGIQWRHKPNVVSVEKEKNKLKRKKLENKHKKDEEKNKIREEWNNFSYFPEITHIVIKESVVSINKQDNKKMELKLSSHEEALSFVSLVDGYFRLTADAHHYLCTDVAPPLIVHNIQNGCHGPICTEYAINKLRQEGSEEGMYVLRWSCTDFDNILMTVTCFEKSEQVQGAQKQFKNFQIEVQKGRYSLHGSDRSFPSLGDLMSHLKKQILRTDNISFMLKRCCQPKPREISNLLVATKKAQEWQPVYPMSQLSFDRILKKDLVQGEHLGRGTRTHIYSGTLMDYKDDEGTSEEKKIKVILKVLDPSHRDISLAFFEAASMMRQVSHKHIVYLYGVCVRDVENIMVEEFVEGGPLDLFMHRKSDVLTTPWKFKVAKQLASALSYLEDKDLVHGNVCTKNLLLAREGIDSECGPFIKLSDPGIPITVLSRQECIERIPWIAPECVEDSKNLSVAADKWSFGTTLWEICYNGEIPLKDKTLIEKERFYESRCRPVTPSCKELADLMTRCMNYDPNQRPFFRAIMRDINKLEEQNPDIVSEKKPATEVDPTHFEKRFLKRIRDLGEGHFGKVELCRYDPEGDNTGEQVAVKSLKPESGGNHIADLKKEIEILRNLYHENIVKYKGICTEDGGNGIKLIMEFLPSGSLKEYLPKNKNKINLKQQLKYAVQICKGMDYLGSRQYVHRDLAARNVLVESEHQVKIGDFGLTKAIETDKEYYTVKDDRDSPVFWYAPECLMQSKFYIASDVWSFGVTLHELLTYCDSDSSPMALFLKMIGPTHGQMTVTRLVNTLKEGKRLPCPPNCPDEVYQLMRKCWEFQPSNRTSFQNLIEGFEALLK

For `Cc1cc(Nc2ccc3ncn([C@@H]4CCc5ccc(F)cc54)c3n2)[nH]n1.Cl.Cl` [Example 1, 3-[(1R)-6-fluoro-2,3-dihydro-1H-inden-1-yl]-N-(3-methyl-1H-pyrazol-5-yl)-3H-imidazo[4,5-b]pyridin-5-amine dihydrochloride], the IC50 was 1.7 nM.
